From US20240335464A1, “ADMINISTRATION OF STING AGONIST, CHECKPOINT INHIBITORS, AND RADIATION” (Takeda Pharmaceutical Company Limited, priority 2020, published 2024)

Test system: EMT6 mouse breast carcinoma syngeneic tumor
Test: Study 1: EMT6 mouse syngeneic tumor model, subcutaneous, anti-tumor efficacy
Type: in vivo, female BALB/c mice
Settings: for GRI (%) Day 19: vs vehicle; for Number of Complete Regressions: n=10/group, 72-day study; for Combination Assessment / Synergy Score %: data through Day 19
Source text: Studies 1 and 2: EMT6 is a mouse breast carcinoma cell line. EMT6 mouse syngeneic tumor model was generated by subcutaneous (sc) inoculation with 0.2×10^6 EMT6 cells (cell suspension) in nine to ten week old female BALB/c mice (Vital River Laboratory Animal Technology Co., Ltd., Beijing, China) in the flank. When the mean tumor volume reached 60 mm^3 in Study 1 and 75 mm^3 in Study 2 the animals were randomized into one vehicle control and seven treatment groups (n=10/group). Mice were then dosed with vehicle (phosphate buffered saline (PBS)) or Compound No. 14 or 10 Gy Radiation or Compound No. 14 plus 10 Gy Radiation over an eight-day period. Tumor growth and body weight were measured three times per week during the treatment and post-treatment periods. Mice were humanely euthanized once they reached their humane endpoint or until study termination on day 72 (Study 1) or on day 60 (Study 2).
Studies 1 and 2: A 0.1 mg/mL stock solution of Compound No. 14 was formulated in PBS and administered intravenously (IV) based on exact animal body weight on each day of treatment, using a dosing volume of 10 mL/kg body weight. Final doses received were 1.0 mg/kg. […] Compound No. 14 was administered on a Q3D schedule for 3 doses (Day 2, 5 and 8) in single agent treatment group and in combination treatment groups. Dose formulation of Compound No. 14 was prepared once and utilized for dosing on Days 2, 5 and 8.
Radiation treatment for Studies 1 and 2 was performed using RadSource RS 2000 X-ray irradiator (Rad Source Technologies). Animals received 1.046 Gy/minute of radiation and approximately 9.5 min was needed to reach a 10 Gy dose delivery. Animals were anesthetized prior to placement in irradiation chamber using isoflurane and checked for reflexes. Radiation beam was focused on tumor with manual positioning. Radiation was administered via manual positioning in a single 10 Gy dose on either day 0, 2 or 4 in Study 1, and on either day 0, 1, 2, 3 or 4 in Study 2.
Tumors were measured three times weekly using vernier calipers. Tumor volumes were calculated using standard equation: V=W^2×L/2, where V=volume, W=width, and L=length for the tumor. When mean tumor volumes reached approximately 60 mm^3 for Study 1, 75 mm^3 for Study 2, and 110 mm^3 for Study 3, mice were randomized into eight groups (n=10/group) in Studies 1 and 2, and nine groups (n=8/group) in Study 3. These groups were then dosed with vehicle (PBS), Compound No. 14, Radiation, anti-mPD-1 or isotype control, or combinations of these agents as described in Tables 1a, 2a, and 3a. Tumor size and body weight were measured three times a week for the duration of each study. Mice were euthanized for Studies 1 and 2 when their tumor volumes reached greater than 10% of their body weight or when an individual tumor exceeded the humane end-point for size (>2 cm) or when an animal lost 20% of their body weight relative to the start of the study or lost 15% of their body weight in any 24 hr time frame. Mice were euthanized in Study 3 when tumor volume exceeded 2,000 mm^3 or an animal lost more than 20% of their body weight relative to the start of study.
Growth Rate Inhibition: The differences in the tumor growth trends over time between pairs of treatment groups were assessed by fitting each animal's data to a simple exponential growth model and comparing the mean growth rates of the two groups, as described in more detail below. The difference in the growth rates was summarized by the GRI, which is the reduction in growth rate experienced by the treatment group relative to that of the reference group, expressed as a fraction of the vehicle growth rate.
μT and μC are the mean tumor growth rates for the treatment and reference groups, respectively. μV is the mean tumor growth rate for the vehicle group, which in most cases is the same as the reference group.
A GRI greater than 100% is interpreted as tumor regression when the vehicle group is the same as the reference group. […]

[1] = Compound No. 14 1.0 mg/kg IV Q3D×3 + 10Gy Radiation (Day 0)
[2] = Compound No. 14 1.0 mg/kg IV Q3D×3 + 10Gy Radiation (Day 2)
[3] = Compound No. 14 1.0 mg/kg IV Q3D×3 + 10Gy Radiation (Day 4)
[4] = Compound No. 14 + Radiation (10 Gy) Day 0
[5] = Compound No. 14 + Radiation (10 Gy) Day 2
[6] = Compound No. 14 + Radiation (10 Gy) Day 4

Structure (SMILES): Nc1ncnc2c1ncn2[C@@H]1O[C@@H]2COP(=O)(S)O[C@@H]3[C@H](O)[C@@H](COP(=O)(S)O[C@H]2[C@H]1F)O[C@H]3n1cc(F)c2c(=O)[nH]cnc21 (stereo partly drawn) [Compound No. 14]
- GRI (%) Day 19 (Compound No. 14 1.0 mg/kg IV Q3D×3 (Days 2, 5, 8), single agent): 30%
- Number of Complete Regressions [1]: 1
- GRI (%) Day 19 [1]: 82%
- Number of Complete Regressions [2]: 1
- GRI (%) Day 19 [2]: 60%
- Number of Complete Regressions [3]: 2
- GRI (%) Day 19 [3]: 67%
- Number of Complete Regressions (Compound No. 14 1.0 mg/kg IV Q3D×3, single agent): 0
- Combination Assessment [4]: Additive
- Synergy Score % [4]: −20%
- Combination Assessment [5]: Additive
- Synergy Score % [5]: 7%
- Combination Assessment [6]: additive
- Synergy Score % [6]: −10%
- Combination Assessment (Compound No. 14 + Radiation (10 Gy) Day 4, listed as Compound No.14): Additive
